This note sets out measurements from US10137239B2, “Systems and methods for monitoring time based photo active agent delivery or photo active marker presence” (Avedro, Inc., priority 2011, dated 2018).

The assay is described as follows: Effect of a quenching agent on Riboflavin fluorescence in the eye after Riboflavin pre-soak. Particulars: 1% ascorbic acid drops for 5, 10, 15 min after 30 min pre-soak with 0.1% Riboflavin-5-phosphate in saline; control distilled water; FIGS. 14, 15A, 15B. On the set-up: species or system porcine. The procedure:
In an experimental setup, the Galilei Dual Scheimpflug Analyzer from Ziemer was used to perform experiments to detect the presence of Riboflavin in porcine corneas through a filter in front of one of the detectors in the Scheimpflug analyzer. The Dual Scheimpflug Analyzer has two detectors that rotate 180° taking several spokes (ranging from 16 to 60 spokes) of the corneal tissue illuminated by 470 nm light through a slit lamp aperture.
A Straw colored filter (Cinegel, Rosco) is used to filter the exciting light (i.e., the 470 nm light), while allowing the fluorescence (i.e., the 525 nm light) to reach the detector. This is illustrated by the graph shown in FIG. 11B, which illustrates the transmission spectrum for the Straw colored filter utilized.
However, as discussed above, several different substances can be utilized as quenching agents to inhibit the photo-activation of a cross-linking agent, or to degrade the cross-linking agent such that it is no longer photo-active. […] After the pre-soak, the eye was placed in front of the Scheimpflug analyzer and another image (or series of images) was captured to determine the distribution of Riboflavin based on the detected pattern of fluorescence within the cornea. […]
To analyze the effects described above, images from the Scheimpflug image capture system were exported and analyzed. […]

Take `O=C1O[C@H]([C@@H](O)CO)C(O)=C1O` [ascorbic acid]: the “maximum fluorescence intensity observed with the Scheimpflug imager” value was “considerably decreases the maximum fluorescence intensity”.
